Assay [1] concerns C2C12 myotubes. Put plainly: Dexamethasone-induced atrophy of differentiated C2C12 myotubes, myotube diameter (ImageJ). The format is cell-based, mouse. The settings on record: for prevention of dexamethasone-induced reduction in diameter of C2C12 myotubes (in words): dexamethasone-induced atrophy.
Protocol: C2C12 mouse myoblasts used in this experiment were obtained from the American Type Culture Collection (ATCC). The cells were cultured in Dulbecco's Modified Eagle's Medium (DMEM) containing 10% fetal bovine serum (FBS), 100 U/mL penicillin, and 100 μg/mL streptomycin under conditions of 5% CO2 at 37° C. The C2C12 cells were seeded into 12-well plates and allowed to proliferate until reaching a confluence of 85-90%.
For induction of differentiation, the culture medium was replaced with a differentiation medium composed of DMEM supplemented with 2% horse serum, 100 U/mL penicillin, and 100 μg/mL streptomycin. The medium was replaced every two days, and differentiation was carried out for a total of 6 days.
The diameter of the C2C12 myotubes was measured using the ImageJ cell processing software. For each experimental group, the diameters of 50 individual myotubes were measured to calculate the average and standard error.
For assay [2], the system named is C2C12 myotubes. Briefly: Fusion index of MHC-positive multinucleated C2C12 myotubes after dexamethasone (MHC immunofluorescence). Type of assay: cell-based, mouse. The protocol: The experiment was conducted similarly to Example 3-2. However, Dichotomine B was administered at concentrations of 10 μM and 30 μM.
After completion of treatment, the culture media from each group was removed, and cells were washed twice with phosphate-buffered saline (PBS), fixed with 4% paraformaldehyde for 15 minutes, and washed three times with PBS. The cells were then permeabilized with 0.1% Triton X-100 for 10 minutes, washed twice with PBS, and blocked with 3% horse serum solution for 2 hours. Mouse anti-MHC antibody was diluted 1:100 in 3% BSA and incubated overnight at 4° C. The cells were washed three times with 0.1% PBST. Goat anti-mouse IgG-FITC secondary antibody (Thermo Fisher Scientific) was diluted 1:500 in 3% BSA and reacted for 1 hour at 37° C., followed by three washes with 0.1% PBST. Next, cells were stained with 1 μg/mL Hoechst 33342 solution for 10 minutes at room temperature. Cell imaging was performed using the JuLi™ system. MHC immunofluorescence was visualized in green, and cell nuclei stained with Hoechst 33342 were visualized in blue.
From the results of Section 7-3, randomly selected multinucleated myotubes were analyzed to calculate the fusion index. The number of multinucleated myotubes (i.e., myotubes containing multiple nuclei) was counted and normalized to the total number of cells. The relative number of MHC-positive multinucleated myotubes was determined for each treatment group (see Table 4 and FIG. 13).

In assay [3] the test system is MHC, Atrogin-1 and MuRF-1 in C2C12 myotubes. Briefly: Western blotting of dexamethasone-treated C2C12 myotubes. The settings on record: dexamethasone model, western blot. The format is cell-based, mouse. The protocol:
C2C12 cells were seeded in a 6-well plate at a density of 1×10^5 cells per well. After differentiation was complete, each group was treated with dexamethasone and the test sample according to the respective experimental condition.
Cells were lysed using a lysis buffer containing LIPA buffer, protease inhibitors, and phosphatase inhibitors. A volume of 200 μL of the prepared lysis buffer was added per well, and the cells were collected using a cell scraper. The lysates were centrifuged at 13,000 rpm for 20 minutes, and the supernatants were collected. Protein concentrations were measured using the BCA protein assay method. Equal amounts of protein were separated using 8% SDS-PAGE.
The separated proteins were transferred to a nitrocellulose membrane, followed by blocking with 3% BSA buffer. The membranes were incubated with various primary antibodies (e.g., MHC, FoxO3a, MuRF1, GAPDH), followed by sequential washing, incubation with secondary antibodies, and further washing steps.
Protein expression was detected using enhanced chemiluminescence (ECL), and images were acquired using the ChemiDoc imaging system. Quantification of each protein expression level was performed using ImageJ software.

For assay [4], the system named is C2C12 myotubes. Briefly: In vitro starvation model (serum-free/low-glucose medium), C2C12 myotube diameter and MHC-stained area. The format is cell-based, mouse. The protocol: (§1) Culturing differentiated C2C12 myotubes in serum-free/low-glucose medium inhibits muscle protein synthesis and induces muscle atrophy through increased protein degradation. In this example, C2C12 myotubes differentiated as in Section 8-1 were cultured in serum-free/low-glucose medium to induce atrophy, and the cells were then treated with Dichotomine B under the following specific experimental conditions: • 1. Control group: Differentiated C2C12 myotubes were maintained in normal differentiation medium for 48 hours. • 2. Negative control group: Differentiated C2C12 myotubes were cultured in serum-free/low-glucose medium for 48 hours. • 3 Dichotomine B treatment groups: In the same condition as the negative control group, Dichotomine B was additionally administered at concentrations of 1 μM or 10 μM for 48 hours.
This procedure was conducted in the same manner as described in Section 7-3.
The diameter and staining area of the myotubes were measured as described in Example 3-3. The mean and standard errors were calculated, and the results were organized into Table 6. Each experiment was performed in triplicate.

Assay [5] concerns MHC, FOXO3a, Atrogin-1 and MuRF-1 in C2C12 myotubes. Put plainly: Western blotting in the C2C12 starvation model. Type of assay: cell-based, mouse. Particulars: western blot. The protocol: as §1
Western blotting was performed in the same manner as described in Example 7-5 to assess the expression levels of related proteins.

Assay [6] can be described thus: Body weight of mice with 48-hour fasting. Type of assay: in vivo, C57BL/6 male mice. Particulars: 10 mg/kg; for Body weight (g), End of Sample Administration: administered twice. The protocol:
(§2) C57BL/6 male mice (6 weeks old) were obtained from Koatech (Pyeongtaek, Gyeonggi-do, Korea) and acclimated for one week in the Hanyang University ERICA Laboratory Animal Center (Animal Facility Registration No. 445) before use in the experiments. The lighting cycle was set to 12 hours (07:00 to 19:00), and food and water were provided ad libitum. All animal experiments were conducted in compliance with the guidelines and regulations of the Institutional Animal Care and Use Committee (IACUC) of Hanyang University.
(§3) After acquisition of the experimental animals and a 7-day acclimation period, the experiment was conducted.
Solid feed for laboratory animals (Woojung Bio, Hwaseong, Gyeonggi-do, Korea) was provided, and all treatments were administered during a fixed time window (10:00 AM to 12:00 PM).
(§4) Body weight was measured three times in total. For the fasting group, each animal was housed individually during the fasting period. The test sample was administered twice: once at the start of the fasting period, and again 24 hours later. Experimental results are presented as means±standard deviation (SD). Statistical significance among groups was analyzed using ANOVA t-tests via the StatView program.
In the non-fasting group, body weight changes were within the normal range. However, in the fasting group (F group), a statistically significant reduction in body weight was observed after 48 hours of fasting (see Table 7).

Assay [7] deals with C57BL/6 male mice. Put plainly: Grip strength of mice after 48-hour fasting (grip strength meter). The format is in vivo. Particulars: fed mice, 10 mg/kg. The protocol: as §2, §3, §4
After the completion of the fasting period, grip strength was measured using a grip strength meter.

Assay [8] has as its system C57BL/6 male mice. Put plainly: Muscle tissue weights (TA, EDL, GA, SOL) of mice after 48-hour fasting. Type of assay: in vivo. Particulars: 10 mg/kg. The protocol: as §2, §3, §4
To evaluate muscle loss, the weights of dissected muscle tissues-including the tibialis anterior (TA), extensor digitorum longus (EDL), gastrocnemius (GA), and soleus (SOL)-were measured post-mortem and summarized in Table 9.

The mark [9] stands for this setting: Dex 10 μM + compound 30 μM, 24 hours.
Setting [10] is: starvation (serum free/low glucose medium) 48 hours + compound 1 μM.
Setting [11] is: starvation (serum free/low glucose medium) 48 hours + compound 10 μM.
[12] abbreviates: fed mice (Feed + Dichotomine B).

Experimental findings from US20260158094A1, “COMPOSITION FOR PREVENTING, IMPROVING OR TREATING SKELETAL MUSCLE ATROPHY OR SARCOPENIA COMPRISING EXTRACT OR ISOLATED COMPOUND FROM STELLARIA DICHOTOMA AS ACTIVE INGREDIENT” (INDUSTRY-UNIVERSITY COOPERATION FOUNDATION HANYANG …, priority 2023, published 2026) are described below.

Several values for one entry are separate records, joined by “and”; a condition that tells them apart may be missing. Identical values can stand only once. Marks after values point to notes of the source that are not given here.

Take `C[C@H](O)c1nc(C(=O)O)cc2c1[nH]c1ccccc12` [Dichotominee A, Dichotomine A]: the “C2C12 myotube diameter (% of control)” value in the assay on C2C12 myotubes [1] (setting [9]) was 87.9 % of control.

For the molecule `O=c1cc(-c2ccc(O)cc2)oc2c([C@@H]3O[C@H](CO)[C@@H](O)[C@H](O)[C@H]3O)c(O)c([C@@H]3OC[C@H](O)[C@H](O)[C@H]3O)c(O)c12` [Isoshaftoside], in the assay on C2C12 myotubes [1] (setting [9]), the “C2C12 myotube diameter (% of control)” value is 95.7^c % of control. The “prevention of dexamethasone-induced reduction in diameter of C2C12 myotubes (in words)” value in the assay on C2C12 myotubes [1] was “effectively prevented”.

On to Shaftoside, for which the “C2C12 myotube diameter (% of control)” value with C2C12 myotubes [1] (setting [9]) was 92.7^c % of control. In the assay with C2C12 myotubes [1], the “prevention of dexamethasone-induced reduction in diameter of C2C12 myotubes (in words)” value was “effectively prevented”.

As to Glucodichotomine B, the “C2C12 myotube diameter (% of control)” value in the assay on C2C12 myotubes [1] (setting [9]) is 102.0^b % of control. In addition, in the assay on C2C12 myotubes [1], the “prevention of dexamethasone-induced reduction in diameter of C2C12 myotubes (in words)” value is listed as “effectively prevented”.

Turning to `C[C@@H]1C[C@H]2[C@@H]3CCC4=CC(=O)C=C[C@]4(C)[C@@]3(F)[C@@H](O)C[C@]2(C)[C@@]1(O)C(=O)CO` [Dex, Dexamethasone, reference compound], the “C2C12 myotube diameter (% of control)” value in the assay with C2C12 myotubes [1] (dexamethasone 10 μM alone, 24 hours (negative control group)) is on record as 79.9^a % of control. The “decrease of C2C12 myotube diameter compared to the control group” value with C2C12 myotubes [1] (dexamethasone 10 μM vs differentiation medium alone) came out at 21.1%. In addition, the “fusion index of MHC-positive multinucleated C2C12 myotubes (% of control)” value in the assay with C2C12 myotubes [2] (Dex 10 μM alone) is listed as 80.0^a % of control.

Regarding `O=C(O)c1cc2c([nH]c3ccccc32)c([C@@H](O)CO)n1` [Dichotomine B], the “C2C12 myotube diameter (% of control)” value was 97.9^b % of control in the assay on C2C12 myotubes [1] (Dex 10 μM + compound 10 μM, 24 hours); 98.2^b % of control and 100.6^b % of control with C2C12 myotubes [1] (setting [9]); 98.6 + 9.3^b % of control in the assay on C2C12 myotubes [4] (setting [10]); 100.4 ± 10.8^b % of control in the assay with C2C12 myotubes [4] (setting [11]). The “prevention of dexamethasone-induced reduction in diameter of C2C12 myotubes (in words)” value with C2C12 myotubes [1] is reported as “effectively prevented”. In addition, the “fusion index of MHC-positive multinucleated C2C12 myotubes (% of control)” value was 90.3^b % of control in the assay on C2C12 myotubes [2] (Dex 10 μM + compound 10 μM) and 92.3^b % of control in the assay with C2C12 myotubes [2] (Dex 10 μM + compound 30 μM). Also, in the assay on C2C12 myotubes [2] (dexamethasone model), the “fusion index of multinucleated C2C12 myotubes (in words)” value is recorded as “significantly improved the fusion index”. Moreover, the MHC expression entry in assay [3] is “increased in a concentration-dependent manner”. In assay [3], the “expression of Atrogin-1 and MuRF-1” value is “reduced”. Besides, the “MHC positive area (% of control)” value is 93.6 + 7.8^b % of control with C2C12 myotubes [4] (setting [10]) and 97.1 ± 8.4^b % of control in the assay with C2C12 myotubes [4] (setting [11]). In assay [5], the “effect on starvation-induced changes of MHC, FOXO3a, Atrogin-1 and MuRF-1 expression” value is given as “effectively reversed these effects”. The “Body weight (g), Start of Sample Administration” value was 21.080 ± 0.370 g in assay [6] (setting [12]) and 22.214 ± 0.701 g in assay [6] (starved mice (Starvation + Dichotomine B)). Also, the “Body weight (g), End of Sample Administration” value in assay [6] (setting [12]) was determined as 21.400 ± 0.339 g; in assay [6] (starved mice, 48-hour fasting), 17.743 ± 0.885 g. In assay [6] (mice, 48-hour fasting), the “effect on body weight (in words)” value is listed as “no significant effect on body weight”. For the same molecule, the Grip Strength (gf) in the assay on C57BL/6 male mice [7] is 190 ± 11.7 gf. Besides, the “Extensor Digitorum Longus (EDL) weight” value was determined as 0.012 ± 0.002 g with C57BL/6 male mice [8] (fed mice) and 0.014 ± 0.004 g in the assay on C57BL/6 male mice [8] (starved mice, 48-hour fasting). In addition, the “Gastrocnemius (GA) weight” value in the assay on C57BL/6 male mice [8] (fed mice) was determined as 0.169 ± 0.014 g; in the assay with C57BL/6 male mice [8] (starved mice, 48-hour fasting) it was 0.165 ± 0015 g. In the assay on C57BL/6 male mice [8] (fed mice), the “Soleus (SOL) weight” value was 0.010 ± 0.001 g. Also, the “Tibialis Anterior (TA) weight” value in the assay on C57BL/6 male mice [8] (fed mice) was 0.058 ± 0.006 g.
